# Assay results published in paper PMC11649115, “In vitro safety evaluation of dopamine D3R antagonist, R-VK4-116, as a potential medication for the treatment of opioid use disorder” (PLOS ONE, 2024).
# Where two headings read alike, the source gives them in different places.
# How the values were obtained:
# CYP2B6 [1] = test: CYP induction, in situ catalytic activity, human hepatocytes
# From the text: (§1) Rifampicin as a positive control and solvent (0.1% DMSO) vehicle control were also included. The acceptance criteria for CYP induction was ≥ 2-fold induction for significant CYP activity, while the acceptance criteria for CYP mRNA was ≥ 4-fold for significant CYP induction.
# CYP2B6 [2] = test: CYP induction, mRNA, primary cultured human hepatocytes; conditions: Fold Induction (CYP2B6 mRNA expression), hepatocyte Lot 399, 1000 µM
# From the text: as §1
# CYP2B6 mRNA = test: as above; conditions: Fold Induction (CYP2B6 mRNA expression)
# From the text: as §1
# human hepatocytes = test: MTT assay, hepatocyte viability; type: cell-based
# HepG2 cells = test: Phospholipidosis and steatosis, high content screening; type: cell-based; parameters: key to Cell count, Trend (↑↓) / Nuclear size, Trend (↑↓) / DNA structure, Trend (↑↓) / Phospholipidosis, Trend (↑↓) / Steatosis, Trend (↑↓): ↑: increasing trend of response; ↓: decreasing trend of response; conditions: for Steatosis, MEC: (NS) = not statistically significant
# [3] = as above; type: cell-based; parameters: key to Cell count, Trend (↑↓) / Nuclear size, Trend (↑↓) / DNA structure, Trend (↑↓) / Phospholipidosis, Trend (↑↓) / Steatosis, Trend (↑↓): ↑: increasing trend of response; ↓: decreasing trend of response; conditions: human, HepG2 cells
# Kir2.1 = biological target: T1, Kir2.1 (Homo sapiens, UniProt P63252); test: CiPA IonChannelProfiler Cardiac Panel, QPatch; type: cell-based; conditions: mean of two sample results
# T1 sequence (P63252 1-427): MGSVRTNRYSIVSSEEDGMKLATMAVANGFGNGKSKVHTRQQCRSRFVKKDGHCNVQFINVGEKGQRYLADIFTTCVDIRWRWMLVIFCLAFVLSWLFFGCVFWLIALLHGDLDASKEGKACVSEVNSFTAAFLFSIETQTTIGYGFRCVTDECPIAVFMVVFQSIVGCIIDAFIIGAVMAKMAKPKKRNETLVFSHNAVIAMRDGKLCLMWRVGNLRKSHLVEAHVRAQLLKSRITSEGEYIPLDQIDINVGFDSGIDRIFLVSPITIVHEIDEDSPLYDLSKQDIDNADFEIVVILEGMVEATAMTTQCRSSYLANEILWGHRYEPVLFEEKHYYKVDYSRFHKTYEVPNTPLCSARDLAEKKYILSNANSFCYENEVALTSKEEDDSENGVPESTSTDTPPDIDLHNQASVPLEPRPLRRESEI
# CYP1A2 [4] = biological target: T2, CYP1A2 (Homo sapiens, UniProt P05177); test: CYP inhibition in human liver microsomes; conditions: human, human liver microsomes, probe phenacetin
# T2 sequence (P05177 1-516): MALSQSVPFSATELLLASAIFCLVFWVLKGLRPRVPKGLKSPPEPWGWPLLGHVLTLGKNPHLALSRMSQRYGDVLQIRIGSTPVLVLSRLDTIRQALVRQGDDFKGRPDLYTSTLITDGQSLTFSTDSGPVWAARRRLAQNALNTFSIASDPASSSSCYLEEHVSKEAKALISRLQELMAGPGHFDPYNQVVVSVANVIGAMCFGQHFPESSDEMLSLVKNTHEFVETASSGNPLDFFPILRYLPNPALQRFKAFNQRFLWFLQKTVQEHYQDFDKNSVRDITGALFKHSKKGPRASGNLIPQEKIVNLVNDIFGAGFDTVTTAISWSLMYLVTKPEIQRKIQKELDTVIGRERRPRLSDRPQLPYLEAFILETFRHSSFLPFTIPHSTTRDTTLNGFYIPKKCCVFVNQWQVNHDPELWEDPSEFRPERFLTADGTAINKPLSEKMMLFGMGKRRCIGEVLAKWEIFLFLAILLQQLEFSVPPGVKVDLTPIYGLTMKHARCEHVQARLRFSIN
# CYP2B6 [5] = biological target: T3, CYP2B6 (Homo sapiens, UniProt P20813); test: CYP inhibition in human liver microsomes; conditions: human, human liver microsomes, probe bupropion
# T3 sequence (P20813 1-491): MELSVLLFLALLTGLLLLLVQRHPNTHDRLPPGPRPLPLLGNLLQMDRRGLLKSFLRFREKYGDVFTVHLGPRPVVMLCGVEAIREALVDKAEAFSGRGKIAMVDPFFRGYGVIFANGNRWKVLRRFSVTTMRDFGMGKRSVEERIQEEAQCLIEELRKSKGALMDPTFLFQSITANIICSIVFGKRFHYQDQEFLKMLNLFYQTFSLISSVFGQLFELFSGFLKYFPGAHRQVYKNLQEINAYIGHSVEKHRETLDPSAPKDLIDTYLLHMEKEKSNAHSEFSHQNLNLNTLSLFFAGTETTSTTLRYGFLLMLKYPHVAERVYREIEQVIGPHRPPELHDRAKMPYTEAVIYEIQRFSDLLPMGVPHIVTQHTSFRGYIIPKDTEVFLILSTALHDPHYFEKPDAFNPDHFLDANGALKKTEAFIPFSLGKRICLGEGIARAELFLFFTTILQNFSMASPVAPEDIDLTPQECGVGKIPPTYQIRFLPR
# CYP2C9 = CYP2C9 (Homo sapiens, UniProt P11712); test: CYP inhibition in human liver microsomes; conditions: human
# CYP2C9, sequence (P11712 whole entry): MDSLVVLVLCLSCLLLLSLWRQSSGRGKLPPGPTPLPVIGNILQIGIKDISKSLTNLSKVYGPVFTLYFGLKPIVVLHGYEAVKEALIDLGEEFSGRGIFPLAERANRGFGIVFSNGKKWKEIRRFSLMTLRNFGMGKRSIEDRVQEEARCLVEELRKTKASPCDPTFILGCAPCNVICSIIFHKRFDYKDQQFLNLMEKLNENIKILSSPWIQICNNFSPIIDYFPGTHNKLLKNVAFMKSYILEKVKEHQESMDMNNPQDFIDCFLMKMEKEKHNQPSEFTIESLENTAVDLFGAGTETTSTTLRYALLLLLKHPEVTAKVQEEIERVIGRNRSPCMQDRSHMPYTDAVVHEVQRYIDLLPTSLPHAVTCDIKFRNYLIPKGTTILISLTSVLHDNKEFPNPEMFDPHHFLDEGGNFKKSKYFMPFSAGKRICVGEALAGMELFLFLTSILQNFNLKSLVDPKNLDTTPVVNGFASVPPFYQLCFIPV
# CYP2C19 = CYP2C19 (Homo sapiens, UniProt P33261); test: CYP inhibition in human liver microsomes; conditions: human, human liver microsomes, probe mephenytoin
# CYP2C19, sequence (P33261 whole entry): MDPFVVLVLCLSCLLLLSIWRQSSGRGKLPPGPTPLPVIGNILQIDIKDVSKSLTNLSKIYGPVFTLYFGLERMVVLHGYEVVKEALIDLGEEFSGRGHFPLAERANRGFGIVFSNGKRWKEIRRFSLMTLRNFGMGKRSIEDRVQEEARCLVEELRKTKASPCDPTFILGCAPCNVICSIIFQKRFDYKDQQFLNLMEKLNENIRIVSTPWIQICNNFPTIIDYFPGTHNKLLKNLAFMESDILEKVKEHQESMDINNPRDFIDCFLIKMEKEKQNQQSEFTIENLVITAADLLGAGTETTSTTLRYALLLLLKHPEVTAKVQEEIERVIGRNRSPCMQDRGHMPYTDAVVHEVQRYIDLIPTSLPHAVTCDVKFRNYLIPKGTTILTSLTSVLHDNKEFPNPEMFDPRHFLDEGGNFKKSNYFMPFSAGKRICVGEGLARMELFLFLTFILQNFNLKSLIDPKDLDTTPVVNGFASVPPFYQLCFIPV
# CYP2C8 = biological target: T4, CYP2C8 (Homo sapiens, UniProt P10632); test: CYP inhibition in human liver microsomes; conditions: human, human liver microsomes, probe paclitaxel
# T4 sequence (P10632 1-490): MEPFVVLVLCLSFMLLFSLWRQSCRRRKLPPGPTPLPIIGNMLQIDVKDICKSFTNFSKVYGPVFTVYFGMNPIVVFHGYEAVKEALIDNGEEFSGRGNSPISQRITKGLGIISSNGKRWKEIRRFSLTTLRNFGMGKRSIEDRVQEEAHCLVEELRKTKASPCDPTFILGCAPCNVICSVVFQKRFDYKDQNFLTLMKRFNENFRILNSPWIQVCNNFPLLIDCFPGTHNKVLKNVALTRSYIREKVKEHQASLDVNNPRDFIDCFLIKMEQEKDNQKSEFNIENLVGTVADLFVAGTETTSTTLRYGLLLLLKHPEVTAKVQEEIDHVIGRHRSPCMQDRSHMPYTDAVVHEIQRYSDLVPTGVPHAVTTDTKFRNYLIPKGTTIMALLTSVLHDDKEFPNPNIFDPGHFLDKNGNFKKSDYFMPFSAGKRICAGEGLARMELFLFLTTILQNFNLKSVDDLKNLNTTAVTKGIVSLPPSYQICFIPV
# CYP2D6 = CYP2D6 (Homo sapiens, UniProt P10635); test: CYP inhibition in human liver microsomes; conditions: human, human liver microsomes, probe bufuralol
# CYP2D6, sequence (P10635 whole entry): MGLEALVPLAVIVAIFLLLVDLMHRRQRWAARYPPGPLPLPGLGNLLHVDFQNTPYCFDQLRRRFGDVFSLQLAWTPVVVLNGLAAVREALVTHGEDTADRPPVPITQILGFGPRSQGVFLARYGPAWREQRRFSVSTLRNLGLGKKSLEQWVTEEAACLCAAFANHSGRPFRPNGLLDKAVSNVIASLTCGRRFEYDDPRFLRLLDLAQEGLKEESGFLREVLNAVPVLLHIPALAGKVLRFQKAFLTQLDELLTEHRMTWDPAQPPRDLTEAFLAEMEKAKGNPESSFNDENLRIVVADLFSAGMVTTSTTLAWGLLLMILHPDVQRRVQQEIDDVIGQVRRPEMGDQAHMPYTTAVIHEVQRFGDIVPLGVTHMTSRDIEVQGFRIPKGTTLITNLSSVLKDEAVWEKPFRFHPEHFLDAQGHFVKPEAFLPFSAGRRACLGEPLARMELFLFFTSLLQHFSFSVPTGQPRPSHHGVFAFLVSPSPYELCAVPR
# CYP3A4 = CYP3A4 (Homo sapiens, UniProt P08684); test: in vitro; conditions: microsomes
# CYP3A4, sequence (P08684 2-503): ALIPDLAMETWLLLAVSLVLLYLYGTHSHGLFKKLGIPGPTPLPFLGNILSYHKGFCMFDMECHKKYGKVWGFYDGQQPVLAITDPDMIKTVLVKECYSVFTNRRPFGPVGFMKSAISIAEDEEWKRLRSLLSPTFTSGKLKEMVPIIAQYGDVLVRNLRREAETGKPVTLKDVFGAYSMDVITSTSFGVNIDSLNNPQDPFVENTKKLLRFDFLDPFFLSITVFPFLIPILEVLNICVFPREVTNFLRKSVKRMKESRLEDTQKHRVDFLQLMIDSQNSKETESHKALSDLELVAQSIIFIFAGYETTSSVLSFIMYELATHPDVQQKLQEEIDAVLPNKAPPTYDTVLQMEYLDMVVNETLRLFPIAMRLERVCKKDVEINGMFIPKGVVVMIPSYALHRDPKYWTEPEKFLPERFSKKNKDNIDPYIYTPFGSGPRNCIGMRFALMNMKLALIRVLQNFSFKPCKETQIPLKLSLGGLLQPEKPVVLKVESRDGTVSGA
# CYP1A2 [6] = test: CYP induction, in situ catalytic activity, human hepatocytes; type: in vitro ADME
# From the text: as §1
# CYP1A2 mRNA = test: CYP induction, mRNA, primary cultured human hepatocytes; type: in vitro ADME; conditions: read-out: CYP1A2 mRNA Fold Induction (fold of vehicle control)
# From the text: as §1
# [7] = # AC50 greater than the maximum surviving concentration, (NS) = not statistically significant, read-out: Steatosis, AC50
# [8] = read-out: Phospholipidosis, AC50
smiles,measurement,setting,value
CCC1(c2ccccc2)C(=O)NC(=O)NC1=O [Phenobarbital],Bupropion Hydroxylation,"CYP2B6 [1]; hepatocyte Lot 336, 1000 µM",3.6 pmol/min/106 cells
same,"Fold of Vehicle Control (CYP2B6 activity, bupropion hydroxylation)","CYP2B6 [1]; hepatocyte Lot 336, 1000 µM",4.0 fold
same,"Fold of Vehicle Control (CYP2B6 activity, bupropion hydroxylation)","CYP2B6 [1]; hepatocyte Lot 348B, 1000 µM",8.6 fold
same,"Fold of Vehicle Control (CYP2B6 activity, bupropion hydroxylation)","CYP2B6 [1]; hepatocyte Lot 399, 1000 µM",19 fold
same,"fold induction at 48 h, 1000 µM",CYP2B6 [2],11
same,"fold induction at 48 h, 1000 µM","CYP2B6 mRNA; hepatocyte Lot 336, 1000 µM",11
same,"fold induction at 48 h, 1000 µM","CYP2B6 mRNA; hepatocyte Lot 348B, 1000 µM",12
CC/C(=C(\c1ccccc1)c1ccc(OCCN(C)C)cc1)c1ccccc1 [Tamoxifen],"Hepatocyte Viability, MTT Assay Upfront (Mean)",human hepatocytes; 50 µM,4
same,"Hepatocyte Viability, Concurrent MTT Assay (Mean)","human hepatocytes; Lot 336, 50 µM",2
same,"Hepatocyte Viability, Concurrent MTT Assay (Mean)","human hepatocytes; Lot 348B, 50 µM",1
same,"Hepatocyte Viability, Concurrent MTT Assay (Mean)","human hepatocytes; Lot 399, 50 µM",7
same,"Cell count, MEC",HepG2 cells,0.360 µM
same,"Cell count, Trend (↑↓)",HepG2 cells,↑
same,"DNA structure, MEC",HepG2 cells,2.57 µM
same,"DNA structure, Trend (↑↓)",HepG2 cells,↑
same,"Nuclear size, MEC",HepG2 cells,0.672 µM
same,"Nuclear size, Trend (↑↓)",HepG2 cells,↓
same,"Phospholipidosis, MEC",HepG2 cells,0.447 µM
same,"Steatosis, Trend (↑↓)",HepG2 cells,↑
same,"Steatosis, MEC",HepG2 cells,4.38 µM
same,AC50,[3]; [7],16.9 µM
same,AC50,"[3]; read-out: Cell count, AC50",0.442 µM
same,AC50,"[3]; read-out: DNA structure, AC50",6.3 µM
same,AC50,"[3]; read-out: Nuclear size, AC50",3.05 µM
same,AC50,[3]; [8],0.764 µM
[Ba+2].[Cl-].[Cl-] [Barium Chloride],Mean % inhibition on hKir2.1 (End),Kir2.1; 1 µM,11.87%
same,Mean % inhibition on hKir2.1 (End),Kir2.1; 3 µM,30.43%
same,Mean % inhibition on hKir2.1 (End),Kir2.1; 10 µM,55.57%
same,Mean % inhibition on hKir2.1 (End),Kir2.1; 30 µM,85.21%
same,Mean % inhibition on hKir2.1 (End),Kir2.1; 100 µM,89.33%
same,Mean % inhibition on hKir2.1 (Peak),Kir2.1; 1 µM,6.70%
same,Mean % inhibition on hKir2.1 (Peak),Kir2.1; 3 µM,11.92%
same,Mean % inhibition on hKir2.1 (Peak),Kir2.1; 10 µM,17.51%
same,Mean % inhibition on hKir2.1 (Peak),Kir2.1; 30 µM,27.21%
same,Mean % inhibition on hKir2.1 (Peak),Kir2.1; 100 µM,45.99%
CC(=O)N1CCN(c2ccc(OCC3COC(Cn4ccnc4)(c4ccc(Cl)cc4Cl)O3)cc2)CC1 (stereo not drawn) [Ketoconazole],"activity at 20 min, 5 µM",CYP1A2 [4],70.7 ± 2.2%
same,"activity at 20 min, 5 µM",CYP2B6 [5],49.1 ± 0.7%
same,"activity at 20 min, 5 µM","CYP2C9; human liver microsomes, probe diclofenac",65.8 ± 1.9%
same,"activity at 20 min, 5 µM",CYP2C19,82.9 ± 2.8%
same,"activity at 20 min, 5 µM",CYP2C8,45.7 ± 4.7%
CCc1cc(Cl)c(OC)c(N2CCN(C[C@H](O)CCNC(=O)c3cc4ccccc4[nH]3)CC2)c1 [(R)-VK4-116],Mean % inhibition on hKir2.1 (End),Kir2.1; 0.01 µM,8.24%
same,Mean % inhibition on hKir2.1 (End),Kir2.1; 0.1 µM,12.22%
same,Mean % inhibition on hKir2.1 (End),Kir2.1; 1 µM,16.36%
same,Mean % inhibition on hKir2.1 (End),Kir2.1; 10 µM,18.23%
same,Mean % inhibition on hKir2.1 (End),Kir2.1; 100 µM,97.19%
same,Mean % inhibition on hKir2.1 (Peak),Kir2.1; 0.01 µM,9.54%
same,Mean % inhibition on hKir2.1 (Peak),Kir2.1; 0.1 µM,14.42%
same,Mean % inhibition on hKir2.1 (Peak),Kir2.1; 1 µM,19.01%
same,Mean % inhibition on hKir2.1 (Peak),Kir2.1; 10 µM,21.58%
same,Mean % inhibition on hKir2.1 (Peak),Kir2.1; 100 µM,52.64%
Nc1ccc(S(=O)(=O)Nc2ccnn2-c2ccccc2)cc1 [Sulfaphenazole],"activity at 20 min, 3 µM",CYP1A2 [4],98.1 ± 10.8%
same,"activity at 20 min, 3 µM",CYP2D6,94.8 ± 7.2%
same,"activity at 20 min, 3 µM",CYP2B6 [5],100 ± 5.8%
same,"activity at 20 min, 3 µM",CYP2C9; microsomes,23.6 ± 3.3%
same,"activity at 20 min, 3 µM",CYP2C19,102 ± 6.5%
same,"activity at 20 min, 3 µM",CYP2C8,97.6 ± 19.2%
same,"activity at 20 min, 3 µM",CYP3A4; CYP activity (% of Control) 3A4 (Midazolam),98.7 ± 5.2%
same,"activity at 20 min, 3 µM",CYP3A4; CYP activity (% of Control) 3A4 (Testosterone),95.9 ± 4.3%
"COc1ccc2[nH]c([S+]([O-])Cc3ncc(C)c(OC)c3C)nc2c1 (stereo not drawn) [Omeprazole, reference compound]","CYP1A2 activity, Fold of Vehicle Control","CYP1A2 [6]; Lot 336, 50 µM",17 fold
same,"CYP1A2 activity, Fold of Vehicle Control","CYP1A2 [6]; Lot 348B, 50 µM",44 fold
same,"CYP1A2 activity, Fold of Vehicle Control","CYP1A2 [6]; Lot 399, 50 µM",23 fold
same,Phenacetin-O- deethylation,"CYP1A2 [6]; Lot 399, 50 µM",186 pmol/min/106 cells
same,"fold induction at 48 h, 50 µM","CYP1A2 mRNA; Lot 336, 50 µM",115
same,"fold induction at 48 h, 50 µM","CYP1A2 mRNA; Lot 348B, 50 µM",361
same,"fold induction at 48 h, 50 µM","CYP1A2 mRNA; Lot 399, 50 µM",232
CN[C@H]1CC[C@@H](c2ccc(Cl)c(Cl)c2)c2ccccc21 [Sertraline],"Cell count, MEC",HepG2 cells,1.61 µM
same,"Cell count, Trend (↑↓)",HepG2 cells,↓
same,"DNA structure, MEC",HepG2 cells,0.876 µM
same,"DNA structure, Trend (↑↓)",HepG2 cells,↑
same,"Phospholipidosis, MEC",HepG2 cells,<0.0977 µM
same,"Phospholipidosis, Trend (↑↓)",HepG2 cells,↑
same,"Steatosis, Trend (↑↓)",HepG2 cells,↑
same,"Steatosis, MEC",HepG2 cells,0.822 (NS) μM
same,AC50,[3]; [7],> 3.13 µM
same,AC50,"[3]; read-out: Cell count, AC50",2.48 µM
same,AC50,"[3]; read-out: DNA structure, AC50",6.23 µM
same,AC50,"[3]; read-out: Nuclear size, AC50",> 3.13 µM
same,AC50,[3]; [8],0.351 µM
